The assay in a line: Nitric oxide-releasing ability (Griess reagent, with L-cysteine in phosphate buffer). The following applies: for Nitric oxide-releasing rate: 0.1 mM furoxan compound, 5 mM L-cysteine, 50 mM phosphate buffer pH 7.4, 37° C., 1 hour, one molecule of furoxan taken to release one molecule of nitric oxide; for nitric oxide-releasing ability (in words): conclusion from Table 1; for 3 - X/4 - X (NO-releasing rate of 3-halofuroxan/NO-releasing rate of 4-halofuroxan): ratio of the rates of the 3-halo and 4-halo isomers, same conditions as the releasing rate. The protocol: The ability to release nitric oxide on each of (4-fluoro-3-(4-methylphenyl)furoxan, 3-fluoro-4-(4-methylphenyl)furoxan, 4-chloro-3-(4-methylphenyl)furoxan, and 3-chloro-4-(4-methylphenyl)furoxan was evaluated by the following method.
Each furoxan compound and L-cysteine were dissolved in 50 mM phosphate buffer (pH 7.4) to have a concentration of 0.1 mM and 5 mM, respectively, thereby to prepare a solution with a total volume of 6 mL. After stirring the solution at 37° C. for 1 hour, 3 mL of the solution was added to a light absorption cell and 250 μL of Griess reagent was added. After being left to stand at room temperature for 10 minutes, the absorbance was measured. The nitric oxide-releasing rate was obtained from a calibration curve prepared in advance using a sodium nitrite solution.
For orientation: The Griess reaction detects nitrite, a stable product of nitric oxide.

Molecules are shown by their SMILES.

In the case of `Cc1ccc(-c2c(F)no[n+]2[O-])cc1` [4-Fluoro compound, 4-fluoro-3-(4-methylphenyl)furoxan], the Nitric oxide-releasing rate is reported as 2.5%, the “nitric oxide-releasing ability (in words)” value is “almost no nitric oxide-releasing ability” and the “3 - X/4 - X (NO-releasing rate of 3-halofuroxan/NO-releasing rate of 4-halofuroxan)” value came out at 14.7 times.
With `Cc1ccc(-c2no[n+]([O-])c2Cl)cc1` [3-Chloro compound, 3-chloro-4-(4-methylphenyl)furoxan, reference compound], the Nitric oxide-releasing rate was 16.7%.
As to `Cc1ccc(-c2no[n+]([O-])c2F)cc1` [3-Fluoro compound, 3-fluoro-4-(4-methylphenyl)furoxan], the Nitric oxide-releasing rate was 36.8% and the “nitric oxide-releasing ability (in words)” value was “extremely high nitric oxide-releasing ability”. For the same compound, under “3-fluoro versus 3-chloro compound, same conditions”, the “nitric oxide-releasing rate compared to that of the 3-chlorofuroxan compound” value is recorded as “twice or more”.
As to `Cc1ccc(-c2c(Cl)no[n+]2[O-])cc1` [4-Chloro compound, 4-chloro-3-(4-methylphenyl)furoxan, reference compound], the Nitric oxide-releasing rate is given as 4.2% and the “3 - X/4 - X (NO-releasing rate of 3-halofuroxan/NO-releasing rate of 4-halofuroxan)” value worked out at 4.0 times.

The values are drawn from patent US10053435B2, “Furoxan compound, and manufacturing method for same” (NATIONAL UNIVERSITY CORPORATION KOBE UNIVERSITY, priority 2015, dated 2018).
